Values after ≈ are worked out from the molar mass of the structure shown. Where two headings read alike, the source gives them in different places.
Legend:
[1] = tested on: Staphylococcus aureus X1.1; experiment: MIC, standard agar-dilution assay, Staphylococcus aureus X1.1; type: cell-based
Method: (§1) Certain of the derivatives are active against some gram-negative bacteria, such as Pasteurella species. The MIC's in Table II were determined by standard agar-dilution assays.

[2] = tested on: Staphylococcus aureus V41; experiment: MIC, standard agar-dilution assay, Staphylococcus aureus V41; type: cell-based
Method: as §1

[3] = tested on: Staphylococcus aureus X400; experiment: MIC, standard agar-dilution assay, Staphylococcus aureus X400; type: cell-based
Method: as §1

[4] = tested on: Staphylococcus aureus S13E; experiment: MIC, standard agar-dilution assay, Staphylococcus aureus S13E; type: cell-based
Method: as §1

[5] = tested on: Staphylococcus epidermidis EPI1; experiment: MIC, standard agar-dilution assay, Staphylococcus epidermidis EPI1; type: cell-based
Method: as §1

[6] = tested on: Staphylococcus epidermidis EPI2; experiment: MIC, standard agar-dilution assay, Staphylococcus epidermidis EPI2; type: cell-based
Method: as §1

[7] = tested on: Streptococcus pyogenes C203; experiment: MIC, standard agar-dilution assay, Streptococcus pyogenes C203; type: cell-based
Method: as §1

[8] = tested on: Streptococcus pneumoniae Park I; experiment: MIC, standard agar-dilution assay, Streptococcus pneumoniae Park I; type: cell-based
Method: as §1

[9] = tested on: Streptococcus pneumoniae Group D X66; experiment: MIC, standard agar-dilution assay, Streptococcus pneumoniae Group D X66; type: cell-based
Method: as §1

[10] = tested on: Streptococcus pneumoniae Group D X9960; experiment: MIC, standard agar-dilution assay, Streptococcus pneumoniae Group D X9960; type: cell-based
Method: as §1

[11] = tested on: Haemophilus influenzae C.L.; experiment: MIC, standard agar-dilution assay, Haemophilus influenzae C.L.; type: cell-based
Method: as §1

[12] = tested on: Haemophilus influenzae 76; experiment: MIC, standard agar-dilution assay, Haemophilus influenzae 76; type: cell-based
Method: as §1

[13] = tested on: Escherichia coli EC14; experiment: MIC, standard agar-dilution assay, Escherichia coli EC14; type: cell-based
Method: as §1

[14] = tested on: Escherichia coli TEM; experiment: MIC, standard agar-dilution assay, Escherichia coli TEM; type: cell-based
Method: as §1

[15] = tested on: Klebsiella pneumoniae X26; experiment: MIC, standard agar-dilution assay, Klebsiella pneumoniae X26; type: cell-based
Method: as §1

[16] = tested on: Klebsiella pneumoniae KAE; experiment: MIC, standard agar-dilution assay, Klebsiella pneumoniae KAE; type: cell-based
Method: as §1

[17] = tested on: Streptococcus pyogenes C203; experiment: protection of mice experimentally infected with S. pyogenes C203; type: in vivo; settings: mg/kg × 2, doses given 1 and 4 hours postinfection
Method: Some of the derivatives of this invention have shown in vivo antimicrobial activity against experimentally-induced infections in laboratory animals. When two doses of test compound were administered to mice experimentally infected with S. pyogenes C203, the activity observed was measured as an ED50 value [effective dose in mg/kg to protect 50% of the test animals: see Warren Wick, et al., J. Bacteriol. 81, 233-235 (1961)].
^a mg/kg × 2; doses given 1 and 4 hours postinfection

[18] = Titration pKa
[19] = physchem
[20] = Streptococcus pneumoniae Park I, read-out: MIC
[21] = Streptococcus pneumoniae Group D X9960, read-out: MIC
[22] = Haemophilus influenzae C.L., Ampicillin-sensitive strain, read-out: MIC
[23] = Haemophilus influenzae 76, Ampicillin-resistant strain, read-out: MIC
[24] = Escherichia coli TEM, read-out: MIC
[25] = Klebsiella pneumoniae KAE, read-out: MIC
[26] = Staphylococcus aureus V41, Penicillin-resistant strain, read-out: MIC
[27] = Staphylococcus aureus X400, Methicillin-resistant strain, read-out: MIC

Compound	MIC ([1]; read-out: MIC) [µg/mL]	MIC ([2]; Staphylococcus aureus, V41) [µg/mL]	MIC [4] [µg/mL]	MIC ([5]; read-out: MIC) [µg/mL]	MIC [6] [µg/mL]	MIC ([7]; read-out: MIC) [µg/mL]	MIC [8, 20] [µg/mL]	MIC ([9]; Streptococcus pneumoniae) [µg/mL]	MIC [10, 21] [µg/mL]	MIC [11, 22] [µg/mL]	MIC [12, 23] [µg/mL]	MIC ([13]; read-out: MIC) [µg/mL]	MIC ([15]; read-out: MIC) [µg/mL]	MIC [16, 25] [µg/mL]	ED50 ([17]; C203, Oral) [mg/kg]	ED50 ([17]; C203, sc, Subcutaneous) [mg/kg]	MIC [3, 27] [µg/mL]	MIC [7] [µg/mL]	MIC [13] [µg/mL]	MIC ([14]; Escherichia coli) [µg/mL]	other results
CCC1OC(=O)CC(O)C(C)C(OC2OC(C)C(O)C(N(C)C)C2O)C(CCN2CCCCCCC2)CC(C)C(=O)C=CC(C)=CC1CN1CCCCCCC1 (stereo not shown) [Compound 15, 20-DH-DO-23-Deoxy-20,23-di(octahydroazocin-1-yl)-OMT]	0.5 (≈ 0.633 µM)	0.5 (≈ 0.633 µM)	0.5 (≈ 0.633 µM)	0.5 (≈ 0.633 µM)	0.25 (≈ 0.316 µM)	0.125 (≈ 0.158 µM)	0.125 (≈ 0.158 µM)	0.5 (≈ 0.633 µM)	1 (≈ 1.27 µM)	0.5 (≈ 0.633 µM)	1 (≈ 1.27 µM)	4 (≈ 5.06 µM)	2 (≈ 2.53 µM)	8 (≈ 10.1 µM)	> 50	> 10	–	–	–	–	MIC ([3]; Staphylococcus aureus, X400): 0.5 µg/mL (≈ 0.633 µM); MIC [14, 24]: 2 µg/mL (≈ 2.53 µM); pKa ([18]; Titration pKa value (first)): 6.9; pKa ([18]; Titration pKa value (second)): 8.05; pKa ([18]; Titration pKa value (third), third printed value): 8.9
CCC1OC(=O)CC(O)C(C)C(OC2OC(C)C(O)C(N(C)C)C2O)C(CCN2CCCCCC2)CC(C)C(=O)C=CC(C)=CC1C (stereo not shown) [Compound 23]	4 (≈ 6.02 µM)	–	4 (≈ 6.02 µM)	2 (≈ 3.01 µM)	1 (≈ 1.5 µM)	–	–	–	16 (≈ 24.1 µM)	16 (≈ 24.1 µM)	16 (≈ 24.1 µM)	–	2 (≈ 3.01 µM)	128 (≈ 193 µM)	> 100	> 10	8 (≈ 12 µM)	0.5 (≈ 0.752 µM)	128 (≈ 193 µM)	8 (≈ 12 µM)	MIC [2, 26]: 4 µg/mL (≈ 6.02 µM); MIC ([9]; Streptococcus pneumoniae Group D X66, read-out: MIC): 8 µg/mL (≈ 12 µM)
CCC1OC(=O)CC(O)C(C)C(OC2OC(C)C(O)C(N(C)C)C2O)C(CCN2CCCCCC2)CC(C)C(=O)C=CC(C)=CC1CO (stereo not shown) [Compound 5]	–	4 (≈ 5.87 µM)	4 (≈ 5.87 µM)	2 (≈ 2.94 µM)	2 (≈ 2.94 µM)	–	–	16 (≈ 23.5 µM)	–	–	–	–	4 (≈ 5.87 µM)	128 (≈ 188 µM)	> 100	7.8	8 (≈ 11.7 µM)	0.5 (≈ 0.734 µM)	128 (≈ 188 µM)	16 (≈ 23.5 µM)	MIC [1]: 4 µg/mL (≈ 5.87 µM); MIC ([10]; Streptococcus pneumoniae): 16 µg/mL (≈ 23.5 µM); MIC ([11]; Haemophilus influenzae): 16 µg/mL (≈ 23.5 µM); MIC ([12]; Haemophilus influenzae, 76): 16 µg/mL (≈ 23.5 µM)
CCC1OC(=O)CC(O)C(C)C(OC2OC(C)C(O)C(N(C)C)C2O)C(CCN2CCOCC2)CC(C)C(=O)C=CC(C)=CC1CO (stereo not shown) [Compound 14, 20-DH-DO-20-Morpholino-OMT]	4 (≈ 5.98 µM)	–	4 (≈ 5.98 µM)	2 (≈ 2.99 µM)	1 (≈ 1.5 µM)	1 (≈ 1.5 µM)	0.5 (≈ 0.748 µM)	–	4 (≈ 5.98 µM)	16 (≈ 23.9 µM)	4 (≈ 5.98 µM)	–	–	–	> 100	> 10	8 (≈ 12 µM)	–	128 (≈ 191 µM)	64 (≈ 95.7 µM)	MIC [2, 26]: 4 µg/mL (≈ 5.98 µM); MIC [15]: 4 µg/mL (≈ 5.98 µM); MIC ([16]; Klebsiella pneumoniae KAE, symbol for not active at 128 mcg/ml, read-out: MIC): > 128 µg/mL; pKa ([18]; Titration pKa value (first)): 6.5; pKa ([18]; Titration pKa value (second)): 8.4
CCC1OC(=O)CC(O)C(C)C(OC2OC(C)C(O)C(N(C)C)C2O)C(CCN2CCC(c3ccccc3)CC2)CC(C)C(=O)C=CC(C)=CC1CO (stereo not shown) [Compound 4, 20-DH-DO-20-(4-Phenylpiperidin-1-yl)-OMT]	–	2 (≈ 2.69 µM)	2 (≈ 2.69 µM)	1 (≈ 1.35 µM)	0.5 (≈ 0.673 µM)	–	0.25 (≈ 0.336 µM)	2 (≈ 2.69 µM)	4 (≈ 5.38 µM)	–	–	32 (≈ 43.1 µM)	–	–	> 100	> 10	–	2 (≈ 2.69 µM)	–	8 (≈ 10.8 µM)	MIC [1]: 2 µg/mL (≈ 2.69 µM); MIC ([3]; Staphylococcus aureus, X400): 2 µg/mL (≈ 2.69 µM); MIC ([11]; Haemophilus influenzae): 8 µg/mL (≈ 10.8 µM); MIC ([12]; Haemophilus influenzae, 76): 8 µg/mL (≈ 10.8 µM); MIC [15]: 2 µg/mL (≈ 2.69 µM); MIC ([16]; Klebsiella pneumoniae): 64 µg/mL (≈ 86.1 µM)
CCC1OC(=O)CC(O)C(C)C(OC2OC(C)C(O)C(N(C)C)C2O)C(CCN2CC3CCC(CC3)C2)CC(C)C(=O)C=CC(C)=CC1CO (stereo not shown) [Compound 13, 20-DH-DO-20-[3-Azabicyclo(3.2.2)-nonan-3-yl]-OMT]	–	1 (≈ 1.41 µM)	1 (≈ 1.41 µM)	–	0.25 (≈ 0.354 µM)	2 (≈ 2.83 µM)	–	4 (≈ 5.66 µM)	8 (≈ 11.3 µM)	4 (≈ 5.66 µM)	2 (≈ 2.83 µM)	32 (≈ 45.3 µM)	2 (≈ 2.83 µM)	–	87	5.9	1 (≈ 1.41 µM)	–	–	–	MIC [1]: 1 µg/mL (≈ 1.41 µM); MIC [5]: 1 µg/mL (≈ 1.41 µM); MIC ([8]; Streptococcus pneumoniae): 0.25 µg/mL (≈ 0.354 µM); MIC [14, 24]: 8 µg/mL (≈ 11.3 µM); MIC ([16]; Klebsiella pneumoniae): 64 µg/mL (≈ 90.5 µM); pKa ([19]; Titration pKa value (first)): 7.7; pKa ([19]; Titration pKa value (second)): 9.3

From patent publication US4629786A, “C-20- and C-23 modified macrolide derivatives” (Eli Lilly and Company, priority 1984, dated 1986)
